{"source": "patent US8367319B2", "about": "“Methods and compositions for the identification of antibiotics that are not susceptible to antibiotic resistance” (Wayne State University, priority 2002, dated 2013)", "key": {"[1]": {"tested_on": "E. coli DH5", "test": "Minimum inhibitory concentration (MIC) of chloramphenicol for cells expressing plasmid-derived ribosomes (CAT reporter)", "type": "cell-based", "settings": "for MIC: Escherichia coli", "protocol": "Bacterial strains and media. All plasmids were maintained and expressed in E. coli DH5 (supE44, hsdR17, recA1, endA1, gyrA96, thi-1 and relA1) (36). To induce synthesis of plasmid-derived rRNA from the lacUV5 promoter, IPTG was added to a final concentration of 1 mM. Chloramphenicol acetyltransferase activity was determined essentially as described by Nielsen et al. (1989) Anal. Biochem. 179: 19-23. Cultures for CAT assays were grown in LB-Ap100. MIC were determined by standard methods in microtiter plates as described in Lee, K., et al. (1997) J. Mol. Biol. 269: 732-743.\nMinimum inhibitory concentration determination. MICs were determined by standard methods in microtiter plates or on solid medium. Overnight cultures grown in LB-Ap100 were diluted and induced in the same medium containing 1 mM IPTG for three hours. Approximately 10^4 induced cells were then added to wells (or spotted onto solid medium) containing LB-Ap100+ IPTG (1 mM) and chloramphenicol at increasing concentrations."}, "[2]": {"tested_on": "E. coli DH5", "test": "Minimum inhibitory concentration (MIC) of chloramphenicol for cells expressing plasmid-derived ribosomes (CAT reporter)", "type": "cell-based", "settings": "for MIC: Escherichia coli", "remark": "listed apart in the source"}}, "note": "Where two headings read alike, the source gives them in different places."}
{"molecule": "O=C(N[C@H](CO)[C@H](O)c1ccc([N+](=O)[O-])cc1)C(Cl)Cl", "note": "[chloramphenicol]", "values": [{"measurement": "MIC", "setting": "[1]; DH5, 451 of 536 selected MBS-RBS isolates (84.1%), in the presence of inducer, read-out: MIC of chloramphenicol", "value": "400 to 600", "unit": "µg/mL"}, {"measurement": "MIC", "setting": "[1]; DH5, 24 h, cells expressing wild-type rRNA from pRNA122 (unmutated control), induced with 1 mM IPTG, 24 hours, read-out: MIC of chloramphenicol", "value": 600, "unit": "µg/mL"}, {"measurement": "MIC", "setting": "[1]; DH5, 24 h, nine slow growing MBS-RBS isolates (1.7%), in the presence of inducer, scored after 24 hours, read-out: MIC of chloramphenicol", "value": "< 350", "unit": "µg/mL"}, {"measurement": "MIC", "setting": "[1]; DH5, pRNA122 (specialized ribosomes), induced cells, read-out: MIC of chloramphenicol", "value": "550 to 600", "unit": "µg/mL"}, {"measurement": "MIC", "setting": "[1]; DH5, read-out: MIC of chloramphenicol, mean over mutants, cells expressing 78 functional 790-loop mutants in pRNA122, standard deviation 89", "value": 320, "unit": "µg/mL"}, {"measurement": "MIC", "setting": "[1]; DH5, read-out: MIC of chloramphenicol, median and mode over mutants, cells expressing 78 functional 790-loop mutants in pRNA122", "value": 350, "unit": "µg/mL"}, {"measurement": "MIC", "setting": "[1]; DH5, read-out: MIC of chloramphenicol, remaining 76 selected MBS-RBS clones (14.2%), in the presence of inducer", "value": 600, "unit": "µg/mL"}, {"measurement": "chloramphenicol concentration to which cells are sensitive", "setting": "[1]; pRNA122 + wt MBS: CAT message translated by wild-type ribosomes", "value": "< 10", "unit": "µg/mL"}, {"measurement": "MIC of chloramphenicol, range over mutants", "setting": "[1]; {}", "value": "150 to 550", "unit": "µg/mL"}, {"measurement": "MIC", "setting": "[2]; DH5, pRNA122 (specialized ribosomes), uninduced, read-out: background chloramphenicol MIC", "value": "40 to 50", "unit": "µg/mL"}, {"measurement": "MIC", "setting": "[2]; DH5, uninduced cells containing pRNA100 (FIG. 13), read-out: MIC of chloramphenicol", "value": 100, "unit": "µg/mL"}, {"measurement": "Chloramphenicol resistance", "setting": "[2]; uninduced cells containing pRNA100", "value": 75, "unit": "µg/mL"}]}
